Measurements from patent US11691972B2, “Compounds for targeted degradation of BRD9” (C4 Therapeutics, Inc., priority 2020, dated 2023).
pIC50, pKd, pKi: −log10 of the molar value.

Assays:
BRD9 [1] = target: T1, BRD9 (Homo sapiens, UniProt Q9H8M2); assay: Protein degradation by HiBiT luminescent readout (BRD9, BRD7, BRD4); assay type: cell-based; set-up: endogenously expressing BRD9 with HiBiT fusion tag via CRISPR; host or cells: 293T.166 (BRD9-HiBiT), also expressing LgBiT ectopically; conditions: FIG. 11
T1 sequence (Q9H8M2 1-597): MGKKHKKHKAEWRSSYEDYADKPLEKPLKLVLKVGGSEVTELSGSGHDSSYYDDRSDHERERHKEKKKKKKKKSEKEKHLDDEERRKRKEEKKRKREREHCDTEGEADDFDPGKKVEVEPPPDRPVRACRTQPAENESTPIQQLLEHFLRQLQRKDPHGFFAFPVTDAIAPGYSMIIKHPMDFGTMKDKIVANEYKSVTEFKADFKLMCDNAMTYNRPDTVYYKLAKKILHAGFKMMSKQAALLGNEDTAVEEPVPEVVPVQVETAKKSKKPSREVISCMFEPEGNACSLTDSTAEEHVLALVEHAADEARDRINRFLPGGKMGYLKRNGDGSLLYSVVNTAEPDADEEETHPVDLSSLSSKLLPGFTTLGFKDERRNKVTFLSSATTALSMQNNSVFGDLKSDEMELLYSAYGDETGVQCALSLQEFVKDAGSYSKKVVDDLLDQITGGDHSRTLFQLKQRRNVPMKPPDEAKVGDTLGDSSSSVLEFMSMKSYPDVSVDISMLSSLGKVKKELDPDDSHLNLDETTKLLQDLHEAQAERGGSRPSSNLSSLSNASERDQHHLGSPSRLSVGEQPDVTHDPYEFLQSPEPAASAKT

[2] = Body weight change in synovial sarcoma PDX model (SA13412); assay type: in vivo, mice; conditions: 50 mg/kg once a day, 25 mg/kg twice a day, 16.6 mg/kg three times a day, FIG. 24
Description: The x axis is treatment measured in days and the y axis is body weight change measured in percentage. Less than 15% loss of body weight was observed on average.

[3] = test system: BAF wildtype synovial sarcoma cells (SW982); assay: Confluence (growth) over time in SW982 cells; assay type: cell-based, human; conditions: various concentrations, FIG. 17
BRD9 [4] = target: T1, BRD9; assay: BRD9 binding (Ki)
CYP 2C8 = CYP 2C8 (Homo sapiens, UniProt P10632); assay: CYP inhibition 2C8; assay type: in vitro ADME
BRD7 = target: T2, BRD7 (Homo sapiens, UniProt Q9NPI1); assay: BRD7 degradation (24 h), HiBiT 293T.167 cells; assay type: cell-based
T2 construct: endogenously expressing BRD7 with HiBiT fusion tag via CRISPR; host or cells: 293T.167 (BRD7-HiBiT), also expressing LgBiT ectopically
Description: (§1) Dulbecco's modified Eagle medium (DMEM) without phenol red and fetal bovine serum (FBS) were purchased from Gibco (Grand Island, N.Y., USA). Nano-Glo® HiBiT Lytic Assay System was purchased from Promega (Madison, Wis., USA). 293T.166 (BRD9-HiBiT) cell line, endogenously expressing BRD9 with HiBiT fusion tag via CRISPR and ectopically expressing LgBiT tag, was purchased from Promega (Madison, Wis., USA). 293T.167 (BRD7-HiBiT) cell line, endogenously expressing BRD7 with HiBiT fusion tag via CRISPR and ectopically expressing LgBiT tag, was purchased from Promega (Madison, Wis., USA). 293T.92 (BRD4-HiBiT) cell line, endogenously expressing BRD4 with HiBiT fusion tag via CRISPR and ectopically expressing LgBiT tag, was generated in-house. Cell culture flasks and 384-well microplates were acquired from VWR (Radnor, Pa., USA).
(§2) BRD9 degradation was determined based on quantification of luminescent signal using Nano-Glo® HiBiT Lytic Assay kit. Test compounds were added to the 384-well plate from a top concentration of 10 μM with 11 points, half log titration in duplicates. 293T.166 cells were added into 384-well plates at a cell density of 10,000 cells per well. […] BRD7 and BRD4 degradation was similarly determined with 293T.167 cells and 293T.92 cells, respectively. […] Luminescence was acquired on EnVision™ Multilabel Reader (PerkinElmer, Santa Clara, Calif., USA).

HEPG2 = HEPG2 viability; assay type: cell-based; conditions: HEPG2 cells
BRD9-E3 = BRD9-E3 (Homo sapiens, UniProt Q96SW2+Q9H8M2); assay: BRD9-E3 dimerization; assay type: biochemical; conditions: not explained
BRD9 [5] = target: T1, BRD9; assay: BRD9 degradation kinetics; assay type: cell-based; set-up: endogenously expressing BRD9 with HiBiT fusion tag via CRISPR; host or cells: 293T.166 (BRD9-HiBiT), also expressing LgBiT ectopically
BRD9 [6] = target: T1, BRD9; assay: In-vivo BRD9 degradation in the Yamato-SS xenograft model; conditions: various concentrations and times, FIG. 12
BRD9 [7] = target: T1, BRD9; assay: In-vivo BRD9 degradation in the Aska-SS xenograft model; conditions: various concentrations and times, FIG. 13
CYP 3A4 = CYP 3A4 (Homo sapiens, UniProt P08684); assay: CYP inhibition 3A4; assay type: in vitro ADME
GSPT1 = GSPT1 (Homo sapiens, UniProt P15170); assay: GSPT1 degradation; assay type: cell-based; conditions: one value given for IKZF1/SALL4/GSPT1
E3 = E3 (Homo sapiens, UniProt Q96SW2); assay: FP-E3 binding (Kd)
CYP 2C19 = CYP 2C19 (Homo sapiens, UniProt P33261); assay: CYP inhibition 2C19; assay type: in vitro ADME
BRD4 = target: T3, BRD4 (Homo sapiens, UniProt O60885); assay: BRD4 degradation (24 h), HiBiT 293T.92 cells; assay type: cell-based
T3 construct: endogenously expressing BRD4 with HiBiT fusion tag via CRISPR; endogenous in cells; host or cells: 293T.92 (BRD4-HiBiT), generated in-house, also expressing LgBiT ectopically
Description: as §1, §2

BRD9-E3, sequence (Q96SW2 whole entry, one chain of several, the tested form may be a part): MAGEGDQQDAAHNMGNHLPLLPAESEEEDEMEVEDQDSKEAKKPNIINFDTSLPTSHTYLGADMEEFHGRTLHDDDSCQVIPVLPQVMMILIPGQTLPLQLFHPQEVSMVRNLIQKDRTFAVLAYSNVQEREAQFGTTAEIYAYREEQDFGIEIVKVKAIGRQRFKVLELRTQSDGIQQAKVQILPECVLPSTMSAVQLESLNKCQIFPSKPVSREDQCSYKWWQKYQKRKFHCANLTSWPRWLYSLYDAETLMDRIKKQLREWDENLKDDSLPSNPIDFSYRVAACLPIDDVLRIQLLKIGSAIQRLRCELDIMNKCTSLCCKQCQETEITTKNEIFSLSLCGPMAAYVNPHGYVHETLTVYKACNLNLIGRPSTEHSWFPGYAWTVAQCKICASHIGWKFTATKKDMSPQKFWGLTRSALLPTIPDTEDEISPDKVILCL
T2 sequence (Q9NPI1 whole entry, the tested form may be a part): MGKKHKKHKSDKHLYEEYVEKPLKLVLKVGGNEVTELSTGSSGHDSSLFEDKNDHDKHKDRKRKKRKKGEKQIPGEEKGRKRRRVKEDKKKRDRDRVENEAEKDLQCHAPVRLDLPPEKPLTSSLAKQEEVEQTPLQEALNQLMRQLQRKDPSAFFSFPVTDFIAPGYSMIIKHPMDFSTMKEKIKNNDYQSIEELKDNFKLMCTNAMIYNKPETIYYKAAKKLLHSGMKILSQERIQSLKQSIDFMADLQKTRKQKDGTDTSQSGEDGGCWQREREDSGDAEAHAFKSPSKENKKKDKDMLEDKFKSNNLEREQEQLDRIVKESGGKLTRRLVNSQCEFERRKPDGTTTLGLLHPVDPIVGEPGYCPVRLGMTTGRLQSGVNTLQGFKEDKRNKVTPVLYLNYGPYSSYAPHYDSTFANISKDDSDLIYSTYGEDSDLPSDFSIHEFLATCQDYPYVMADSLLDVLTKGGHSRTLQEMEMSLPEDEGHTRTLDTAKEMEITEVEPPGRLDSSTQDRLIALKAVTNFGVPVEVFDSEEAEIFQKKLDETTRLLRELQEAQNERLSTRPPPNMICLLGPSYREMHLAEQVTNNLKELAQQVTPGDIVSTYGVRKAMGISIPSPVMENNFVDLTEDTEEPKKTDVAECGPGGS
CYP 2C8, sequence (P10632 whole entry): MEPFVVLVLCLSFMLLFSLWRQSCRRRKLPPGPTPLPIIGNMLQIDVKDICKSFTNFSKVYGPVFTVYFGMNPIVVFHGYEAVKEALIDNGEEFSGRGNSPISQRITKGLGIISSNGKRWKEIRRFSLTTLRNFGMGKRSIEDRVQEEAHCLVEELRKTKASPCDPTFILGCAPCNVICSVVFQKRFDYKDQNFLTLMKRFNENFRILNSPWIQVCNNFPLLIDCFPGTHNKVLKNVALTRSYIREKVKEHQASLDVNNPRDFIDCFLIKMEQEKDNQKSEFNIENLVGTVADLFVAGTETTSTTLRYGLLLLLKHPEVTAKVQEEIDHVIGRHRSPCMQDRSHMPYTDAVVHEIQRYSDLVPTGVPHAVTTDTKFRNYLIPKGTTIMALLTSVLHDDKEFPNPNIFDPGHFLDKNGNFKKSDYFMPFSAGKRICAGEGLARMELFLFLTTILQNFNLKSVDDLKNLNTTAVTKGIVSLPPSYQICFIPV
E3, sequence (Q96SW2 whole entry): as the sequence (Q96SW2 whole entry, one chain of several, the tested form may be a part) above
CYP 3A4, sequence (P08684 whole entry): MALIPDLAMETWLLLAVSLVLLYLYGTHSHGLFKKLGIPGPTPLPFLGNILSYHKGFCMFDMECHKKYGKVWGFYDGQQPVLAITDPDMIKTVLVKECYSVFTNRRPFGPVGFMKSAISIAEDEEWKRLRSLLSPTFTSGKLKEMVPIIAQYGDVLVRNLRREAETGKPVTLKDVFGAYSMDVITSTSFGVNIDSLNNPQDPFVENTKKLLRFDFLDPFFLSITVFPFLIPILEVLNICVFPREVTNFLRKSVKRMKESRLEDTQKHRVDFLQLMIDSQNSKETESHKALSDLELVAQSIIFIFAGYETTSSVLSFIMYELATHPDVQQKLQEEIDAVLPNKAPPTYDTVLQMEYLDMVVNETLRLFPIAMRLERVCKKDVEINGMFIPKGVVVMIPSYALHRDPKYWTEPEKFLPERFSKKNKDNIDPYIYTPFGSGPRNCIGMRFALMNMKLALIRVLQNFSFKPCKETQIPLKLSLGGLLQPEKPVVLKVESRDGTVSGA
CYP 2C19, sequence (P33261 whole entry): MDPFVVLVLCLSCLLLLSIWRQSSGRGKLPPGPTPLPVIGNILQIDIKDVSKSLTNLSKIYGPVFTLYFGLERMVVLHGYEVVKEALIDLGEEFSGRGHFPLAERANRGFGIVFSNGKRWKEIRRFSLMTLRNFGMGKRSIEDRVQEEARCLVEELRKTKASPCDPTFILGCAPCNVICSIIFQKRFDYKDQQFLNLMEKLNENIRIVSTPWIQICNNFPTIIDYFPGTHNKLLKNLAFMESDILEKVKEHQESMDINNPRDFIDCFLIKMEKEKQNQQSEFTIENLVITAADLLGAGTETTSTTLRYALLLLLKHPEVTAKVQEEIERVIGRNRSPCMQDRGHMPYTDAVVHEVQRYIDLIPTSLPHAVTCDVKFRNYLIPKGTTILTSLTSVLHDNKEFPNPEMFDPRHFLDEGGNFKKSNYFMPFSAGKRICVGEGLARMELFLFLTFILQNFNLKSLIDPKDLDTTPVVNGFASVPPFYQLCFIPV
GSPT1, sequence (P15170 whole entry, species assumed): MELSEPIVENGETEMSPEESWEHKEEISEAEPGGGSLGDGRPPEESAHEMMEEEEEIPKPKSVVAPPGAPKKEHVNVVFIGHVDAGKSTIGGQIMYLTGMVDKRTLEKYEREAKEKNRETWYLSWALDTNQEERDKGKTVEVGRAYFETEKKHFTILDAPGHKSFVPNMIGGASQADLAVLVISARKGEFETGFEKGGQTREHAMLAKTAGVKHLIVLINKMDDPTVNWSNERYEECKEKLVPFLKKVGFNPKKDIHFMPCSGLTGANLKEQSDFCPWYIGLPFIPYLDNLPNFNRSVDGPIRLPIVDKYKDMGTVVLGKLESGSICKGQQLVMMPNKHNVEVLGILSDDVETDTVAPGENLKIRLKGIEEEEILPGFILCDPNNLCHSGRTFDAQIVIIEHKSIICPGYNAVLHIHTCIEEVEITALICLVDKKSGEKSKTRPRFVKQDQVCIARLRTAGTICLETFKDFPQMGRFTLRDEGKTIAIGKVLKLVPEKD

**Q.** Which “protein degradation levels by HiBiT luminescent readout, BRD9 versus BRD7 and BRD4” value (BRD9 [1]) does the source give for `COc1cc(-c2cn(C)c(=O)c(C)c2C)cc(OC)c1CN1CCC(N2CCN(c3ccc(NC4CCC(=O)NC4=O)cc3F)CC2)C(F)(F)C1` (single isomer, unassigned) [Compound 176, 3-[4-[4-[1-[[2,6-dimethoxy-4-(1,4,5-trimethyl-6-oxo-3-pyridyl)phenyl]methyl]-3,3-difluoro-4-piperidyl]piperazin-1-yl]-3-fluoro-anilino]piperidine-2,6-dione] here?
**A.** selective degradation

**Q.** What about the “loss of body weight on average” value [2] of the same compound?
**A.** Less than 15%

**Q.** What about the “confluence as a percentage of control over time” value [3] of the same compound?
**A.** lack of growth inhibition

**Q.** Which results are given for `COc1cc(-c2cn(C)c(=O)c(C)c2C)cc(OC)c1CN1CCC(N2CCN(c3ccc(NC4CCC(=O)NC4=O)cc3F)CC2)C(F)(F)C1` (stereo not shown) [Compound 172, 3-[4-[4-[1-[[2,6-dimethoxy-4-(1,4,5-trimethyl-6-oxo-3-pyridyl)phenyl]methyl]-3,3-difluoro-4-piperidyl]piperazin-1-yl]-3-fluoro-anilino]piperidine-2,6-dione]?
**A.** pKi (BRD9 [4]): 7.09; pIC50 (CYP 2C8): 4.52; Emax (BRD7): 100%; DC50 (BRD7; 24 h, read-out: BRD7 degradation (24 h), IP): > 9.99 µM; HEPG2 Viability (HEPG2): >9.99 µM; BRD9-E3 dimerization, first value (BRD9-E3; first of three values): 120 nM; BRD9-E3 dimerization, second value (BRD9-E3; second of three values): 461 nM; BRD9-E3 dimerization, third value (BRD9-E3; third of three values): 13%; BRD9 Degradation kinetics, first value (BRD9 [5]; first of three values, not explained): 11 nM; BRD9 Degradation kinetics, second value (BRD9 [5]; second of three values, not explained): > 832 nM; BRD9 Degradation kinetics, third value (rate) (BRD9 [5]; third of three values): 1.81 h⁻¹; in-vivo BRD9 degradation (normalized concentration) (BRD9 [6]): dose dependent in-vivo BRD9 degradation; in-vivo BRD9 degradation (normalized concentration) (BRD9 [7]): dose dependent in-vivo BRD9 degradation; pIC50 (CYP 3A4): 4.74; DC50 (GSPT1): > 9.99 µM; pKd (E3): 6.02; pIC50 (CYP 2C19): 4.52; Emax (BRD4): 81%; DC50 (BRD4; 24 h, read-out: BRD4 degradation (24 h), IP): 2 µM
